Here are results for one compound from patent USRE46511E1, “Fused pyrimidine derivatives for inhibition of tyrosine kinase activity” (HANMI SCIENCE CO., LTD., priority 2010, dated 2017).

SMILES strings stand for the structures.

In one test the target is T1, RLK (Homo sapiens, UniProt P42681).
T1 construct: purchased Invitrogen
T1 sequence (P42681 1-527): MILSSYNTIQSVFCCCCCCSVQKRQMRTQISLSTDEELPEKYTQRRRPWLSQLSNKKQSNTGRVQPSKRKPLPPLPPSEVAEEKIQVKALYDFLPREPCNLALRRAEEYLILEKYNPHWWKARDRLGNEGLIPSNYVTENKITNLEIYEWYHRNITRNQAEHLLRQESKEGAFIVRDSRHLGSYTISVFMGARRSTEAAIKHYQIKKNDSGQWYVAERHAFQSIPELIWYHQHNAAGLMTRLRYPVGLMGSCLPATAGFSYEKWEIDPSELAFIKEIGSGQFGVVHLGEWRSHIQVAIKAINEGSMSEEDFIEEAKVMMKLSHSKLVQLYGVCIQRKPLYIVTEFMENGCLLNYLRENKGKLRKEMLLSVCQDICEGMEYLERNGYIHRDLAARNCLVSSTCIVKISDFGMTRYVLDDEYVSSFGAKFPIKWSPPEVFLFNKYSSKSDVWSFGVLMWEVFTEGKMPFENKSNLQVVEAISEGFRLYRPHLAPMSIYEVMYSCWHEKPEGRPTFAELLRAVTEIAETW
The experiment in a line: z-lyte kinase assay, RLK. Format: biochemical.

The target in another test is T2, ITK (Homo sapiens, UniProt Q08881).
T2 construct: purchased Invitrogen
T2 sequence (Q08881 1-620): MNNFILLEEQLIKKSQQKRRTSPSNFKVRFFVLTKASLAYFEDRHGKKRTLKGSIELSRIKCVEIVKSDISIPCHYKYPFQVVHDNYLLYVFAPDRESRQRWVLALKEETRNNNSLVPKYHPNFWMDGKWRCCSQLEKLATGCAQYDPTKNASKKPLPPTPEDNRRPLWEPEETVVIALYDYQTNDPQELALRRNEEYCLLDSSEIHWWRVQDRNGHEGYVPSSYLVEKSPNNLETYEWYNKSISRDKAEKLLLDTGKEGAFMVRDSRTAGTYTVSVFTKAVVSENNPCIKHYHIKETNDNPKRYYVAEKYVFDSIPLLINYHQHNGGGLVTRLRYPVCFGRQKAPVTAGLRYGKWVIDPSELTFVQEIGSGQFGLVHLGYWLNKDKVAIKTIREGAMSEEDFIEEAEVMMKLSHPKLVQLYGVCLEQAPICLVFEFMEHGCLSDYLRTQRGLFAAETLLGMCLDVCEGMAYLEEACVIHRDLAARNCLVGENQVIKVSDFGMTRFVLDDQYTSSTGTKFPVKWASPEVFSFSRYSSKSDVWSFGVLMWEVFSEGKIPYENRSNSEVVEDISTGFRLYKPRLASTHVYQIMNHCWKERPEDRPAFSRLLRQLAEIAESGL
The experiment in a line: z-lyte kinase assay, ITK. Format: biochemical.

In a further test the target is T3, BMX (Homo sapiens, UniProt P51813).
T3 construct: purchased Invitrogen
T3 sequence (P51813 1-675): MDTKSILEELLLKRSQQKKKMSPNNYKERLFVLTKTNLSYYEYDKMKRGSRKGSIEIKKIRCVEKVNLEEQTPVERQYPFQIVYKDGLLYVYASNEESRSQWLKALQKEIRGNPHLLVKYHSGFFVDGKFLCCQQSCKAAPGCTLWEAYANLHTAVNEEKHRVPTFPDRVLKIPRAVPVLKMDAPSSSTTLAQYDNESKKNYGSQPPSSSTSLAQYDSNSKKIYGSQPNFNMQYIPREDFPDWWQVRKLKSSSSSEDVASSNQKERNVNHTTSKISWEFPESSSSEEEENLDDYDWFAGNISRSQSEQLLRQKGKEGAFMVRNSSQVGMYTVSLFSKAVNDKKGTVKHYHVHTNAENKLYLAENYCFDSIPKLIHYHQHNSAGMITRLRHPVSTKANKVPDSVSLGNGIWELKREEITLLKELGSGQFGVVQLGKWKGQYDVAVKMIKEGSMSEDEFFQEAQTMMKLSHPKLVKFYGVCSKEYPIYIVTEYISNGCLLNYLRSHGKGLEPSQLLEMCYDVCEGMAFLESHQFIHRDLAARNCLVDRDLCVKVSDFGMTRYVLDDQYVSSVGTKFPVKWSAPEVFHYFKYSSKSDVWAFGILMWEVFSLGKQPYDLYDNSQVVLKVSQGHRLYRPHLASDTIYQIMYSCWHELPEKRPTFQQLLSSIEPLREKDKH
The experiment in a line: z-lyte kinase assay, BMX. Type of test: biochemical.

In the next test the test system is A431 (EGFR WT). The experiment in a line: Inhibition test for growth of cancer cell expressing EGFR (SRB), A431.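 Note: cells in 96-well plates exposed to tenfold serial dilutions from 100 µM down to 10^−6 µM, DMSO under 1%, SRB staining read as absorbance at 540 nm.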 Type of test: cell-based. Conditions: Homo sapiens, A-431; A431 cells, 72 hours, SRB; read-out: GI50 A431 EGFR WT.
The test system of test [1] is NCI-H1975 (EGFR L858R/T790M). The test is described as follows: Inhibition test for growth of cancer cell expressing EGFR (MTS), NCI-H1975. Type of test: cell-based. The note with it: Homo sapiens; NCI-H1975 cells, 48 hours, MTS; read-out: GI50 NCI-H1975 EGFR L858R/T790M.

As for `C=CC(=O)Nc1cccc(Oc2nc(Nc3ccc(N4CCN(C)CC4)cc3)nc3ccsc23)c1` [Example 1, N-(3-(2-(4-(4-methylpiperazin-1-yl)phenylamino)thieno[3,2-d]pyrimidine-4-yloxy)phenyl)acrylamide], the values for the IC50 at RLK, against ITK and on BMX were at most 50 nM, 50 to 100 nM and at most 50 nM, respectively. Moreover, the GI50 in the test on A431 (EGFR WT) was above 1000 nM; in test [1] it was below 50 nM.
